# Experimental data taken from patent EP4467141A1, “PYRAZOLO-QUINOLINES AS SELECTIVE INHIBITORS OF GENOTOXIC STRESS-INDUCED IKK/NF- KB PATHWAYS FOR CANCER THERAPY” (Max-Delbrück-Centrum für Molekulare Medizin in der …, priority 2023, dated 2024).
# What was measured:
# Assay in all cases: Kinase panel study
# Format in all cases: biochemical
# Settings in all cases: read-out: Percentage of inhibition; for inhibition at 1 µM: 1000nM; for inhibition at 10 µM: 10000nM
# MARK4 = target: T1, MARK4 (Homo sapiens, UniProt Q96L34)
# T1 construct: purchased Thermo Fisher Scientific
# T1 sequence (Q96L34 1-752): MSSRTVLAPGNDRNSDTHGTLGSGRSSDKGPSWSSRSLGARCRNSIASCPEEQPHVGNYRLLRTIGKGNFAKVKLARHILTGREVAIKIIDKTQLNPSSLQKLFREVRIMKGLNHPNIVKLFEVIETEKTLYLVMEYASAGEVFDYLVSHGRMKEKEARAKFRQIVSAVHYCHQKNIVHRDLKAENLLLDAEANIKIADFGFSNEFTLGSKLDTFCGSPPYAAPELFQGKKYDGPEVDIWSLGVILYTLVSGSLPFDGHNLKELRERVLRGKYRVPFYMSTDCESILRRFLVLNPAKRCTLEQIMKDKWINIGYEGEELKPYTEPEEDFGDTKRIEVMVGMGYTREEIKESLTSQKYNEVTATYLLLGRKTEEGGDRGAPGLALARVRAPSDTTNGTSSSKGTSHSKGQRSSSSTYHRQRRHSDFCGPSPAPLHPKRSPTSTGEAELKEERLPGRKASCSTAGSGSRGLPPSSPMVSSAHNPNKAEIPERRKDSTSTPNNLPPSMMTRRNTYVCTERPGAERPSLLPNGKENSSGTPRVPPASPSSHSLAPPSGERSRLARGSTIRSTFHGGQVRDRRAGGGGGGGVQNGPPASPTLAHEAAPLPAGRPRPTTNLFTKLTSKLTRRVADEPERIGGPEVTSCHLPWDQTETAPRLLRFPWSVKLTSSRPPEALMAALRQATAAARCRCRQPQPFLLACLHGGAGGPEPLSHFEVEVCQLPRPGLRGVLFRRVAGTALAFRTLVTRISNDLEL
# Summary of the method: (§1)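 Kinase inhibition was determined by a contract provider in cell-free ZLyte or Adapta assays. Results are expressed as % inhibition at 10 or 1 µM.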
# NIM1K = target: T2, NIM1K (Homo sapiens, UniProt Q8IY84)
# T2 construct: purchased Thermo Fisher Scientific
# Summary of the method: as §1
# PHKG1 = target: T3, PHKG1 (Homo sapiens, UniProt Q16816)
# T3 construct: purchased Thermo Fisher Scientific
# Summary of the method: as §1
# ACVR1B (ALK4) = target: T4, ACVR1B (ALK4) (Homo sapiens, UniProt P36896)
# T4 construct: purchased Thermo Fisher Scientific
# T4 sequence (P36896 24-505): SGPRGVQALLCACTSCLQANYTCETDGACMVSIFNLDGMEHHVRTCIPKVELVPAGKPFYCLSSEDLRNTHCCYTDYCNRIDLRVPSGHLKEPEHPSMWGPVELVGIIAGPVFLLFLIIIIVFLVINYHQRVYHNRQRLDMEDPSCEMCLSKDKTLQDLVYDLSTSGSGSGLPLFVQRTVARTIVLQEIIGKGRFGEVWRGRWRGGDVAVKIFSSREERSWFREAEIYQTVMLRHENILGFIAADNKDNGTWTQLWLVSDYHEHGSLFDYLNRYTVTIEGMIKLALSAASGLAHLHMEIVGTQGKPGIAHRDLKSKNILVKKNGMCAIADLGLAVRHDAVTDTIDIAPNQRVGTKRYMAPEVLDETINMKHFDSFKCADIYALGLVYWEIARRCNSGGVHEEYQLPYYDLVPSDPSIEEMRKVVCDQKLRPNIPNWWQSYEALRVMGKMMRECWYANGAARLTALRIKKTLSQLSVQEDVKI
# Summary of the method: as §1
# BMX = target: T5, BMX (Homo sapiens, UniProt P51813)
# T5 construct: purchased Thermo Fisher Scientific
# T5 sequence (P51813 1-675): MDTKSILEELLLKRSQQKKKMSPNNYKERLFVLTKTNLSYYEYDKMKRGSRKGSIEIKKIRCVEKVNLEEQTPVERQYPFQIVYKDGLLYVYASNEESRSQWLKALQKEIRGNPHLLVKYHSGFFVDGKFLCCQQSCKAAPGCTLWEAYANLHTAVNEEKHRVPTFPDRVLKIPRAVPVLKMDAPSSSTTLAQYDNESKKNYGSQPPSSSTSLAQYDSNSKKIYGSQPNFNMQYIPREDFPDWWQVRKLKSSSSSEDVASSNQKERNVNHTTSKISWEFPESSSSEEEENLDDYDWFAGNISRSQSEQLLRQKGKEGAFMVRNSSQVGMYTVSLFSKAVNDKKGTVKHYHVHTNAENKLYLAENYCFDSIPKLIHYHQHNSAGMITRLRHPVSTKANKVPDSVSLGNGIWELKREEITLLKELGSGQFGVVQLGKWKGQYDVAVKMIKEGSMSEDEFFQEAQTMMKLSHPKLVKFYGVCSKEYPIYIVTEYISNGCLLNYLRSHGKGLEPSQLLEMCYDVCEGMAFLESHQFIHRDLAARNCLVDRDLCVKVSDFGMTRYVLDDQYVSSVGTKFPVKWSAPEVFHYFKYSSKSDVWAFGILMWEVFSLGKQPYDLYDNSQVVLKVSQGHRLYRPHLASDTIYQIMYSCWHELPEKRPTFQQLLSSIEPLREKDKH
# Summary of the method: as §1
# PRKCH (PKC eta) = target: T6, PRKCH (PKC eta) (Homo sapiens, UniProt P24723)
# T6 construct: purchased Thermo Fisher Scientific
# Summary of the method: as §1
# T6 sequence (P24723 whole entry): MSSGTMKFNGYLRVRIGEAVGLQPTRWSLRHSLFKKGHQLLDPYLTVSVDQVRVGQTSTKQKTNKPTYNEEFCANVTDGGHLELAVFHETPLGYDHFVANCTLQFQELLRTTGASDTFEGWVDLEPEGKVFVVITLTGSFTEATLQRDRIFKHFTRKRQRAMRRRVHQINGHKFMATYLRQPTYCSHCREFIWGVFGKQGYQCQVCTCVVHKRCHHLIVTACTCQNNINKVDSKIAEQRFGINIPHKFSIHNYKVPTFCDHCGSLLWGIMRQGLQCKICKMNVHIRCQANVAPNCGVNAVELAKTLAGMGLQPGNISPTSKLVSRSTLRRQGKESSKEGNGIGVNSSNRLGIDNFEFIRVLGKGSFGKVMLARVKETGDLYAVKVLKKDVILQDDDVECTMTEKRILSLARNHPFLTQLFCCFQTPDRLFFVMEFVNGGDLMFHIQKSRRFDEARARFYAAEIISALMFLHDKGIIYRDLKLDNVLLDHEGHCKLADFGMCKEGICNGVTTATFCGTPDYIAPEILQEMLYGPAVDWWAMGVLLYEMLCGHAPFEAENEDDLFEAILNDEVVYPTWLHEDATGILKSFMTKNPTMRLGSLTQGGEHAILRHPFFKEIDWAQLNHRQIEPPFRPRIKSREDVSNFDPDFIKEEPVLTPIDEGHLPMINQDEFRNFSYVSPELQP
# T2 sequence (Q8IY84 whole entry): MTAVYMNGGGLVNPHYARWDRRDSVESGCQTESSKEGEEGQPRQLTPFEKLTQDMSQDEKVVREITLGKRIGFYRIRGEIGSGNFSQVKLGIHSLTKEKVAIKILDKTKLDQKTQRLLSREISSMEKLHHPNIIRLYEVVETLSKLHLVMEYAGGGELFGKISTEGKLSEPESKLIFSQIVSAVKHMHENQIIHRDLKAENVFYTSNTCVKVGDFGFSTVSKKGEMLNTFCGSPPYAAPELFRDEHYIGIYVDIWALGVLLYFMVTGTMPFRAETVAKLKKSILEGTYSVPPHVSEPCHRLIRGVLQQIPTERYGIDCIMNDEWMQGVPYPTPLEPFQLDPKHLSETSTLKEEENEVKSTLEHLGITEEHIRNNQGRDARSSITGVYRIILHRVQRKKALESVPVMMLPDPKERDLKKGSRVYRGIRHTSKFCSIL
# T3 sequence (Q16816 whole entry): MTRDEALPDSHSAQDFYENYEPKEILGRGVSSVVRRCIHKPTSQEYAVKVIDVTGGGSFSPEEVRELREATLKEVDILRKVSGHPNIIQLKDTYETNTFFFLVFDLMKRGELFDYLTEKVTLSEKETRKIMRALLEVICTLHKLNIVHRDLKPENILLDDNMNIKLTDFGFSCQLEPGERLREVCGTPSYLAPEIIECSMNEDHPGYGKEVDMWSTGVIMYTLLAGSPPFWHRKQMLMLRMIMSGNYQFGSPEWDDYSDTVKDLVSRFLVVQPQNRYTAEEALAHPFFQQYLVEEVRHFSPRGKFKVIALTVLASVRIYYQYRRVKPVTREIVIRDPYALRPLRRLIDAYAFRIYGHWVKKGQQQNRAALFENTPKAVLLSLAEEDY
SMILES,inhibition at 1 µM (MARK4) [%],inhibition at 10 µM (MARK4) [%],inhibition at 1 µM (NIM1K) [%],inhibition at 10 µM (NIM1K) [%],inhibition at 1 µM (PHKG1) [%],inhibition at 10 µM (PHKG1) [%],inhibition at 1 µM (ACVR1B (ALK4)) [%],inhibition at 10 µM (ACVR1B (ALK4)) [%],inhibition at 1 µM (BMX) [%],inhibition at 10 µM (BMX) [%],inhibition at 1 µM (PRKCH (PKC eta)) [%],inhibition at 10 µM (PRKCH (PKC eta)) [%]
"COc1ccc2c(c1OC)c(=O)n1c3ccc(O)cc3c3ccnc2c31 [MW01, 5-Hydroxy-10,11-dimethoxy-9H-benzo[c]indolo[3,2,1-ij][1,5]naphthyridin-9-one]",9,15,7,13,8,12,-9,-3,-8,6,1,7
"COc1ccc2cc3c(N)nn(C(=O)c4cccc(N(C)C)c4)c3nc2c1 [MW05, (3-Amino-7-methoxypyrazolo[3,4-b]quinolin-1-yl)-[3-(dimethylamino)phenyl]methanone]",-3,-10,7,2,3,-11,1,-8,-10,4,-3,-9
